In PMC11181328 (Journal of Medicinal Chemistry, 2024):
Where a name gives a salt, the structure may show the parent alone. Read-outs that look alike come from different tables or passages of the source.

Assays:
KOR [1] = biological target: T1, KOR (Mus musculus, UniProt P33534); experiment: [35S]-GTPγS functional assay, KOR; assay type: biochemical; conditions: for Emax: percent of U50,488 full agonist control; for EC50: mKOR-CHO membranes
T1 construct: expressed in transfected cells; membrane homogenate

male Swiss Webster mice [2] = experiment: Warm-water tail immersion assay, agonism (single dose screen and potency); assay type: in vivo, mouse; conditions: for antinociception compared to the vehicle group / percent MPE: single dose 10 mg/kg s.c.; for antinociception compared to the vehicle group: 20 min; for ED50: Mus musculus, sc, read-out: potency ED50 [95% CI] mg/kg, s.c., 20 min prior to tail withdrawal latency measurement, male Swiss Webster mice; for percent MPE: withdrawal latency 20 min after administration
MOR [3] = biological target: T2, MOR (Mus musculus, UniProt P42866); conditions: percent of DAMGO; MOR functional activity first published; cited from earlier work
MOR [4] = biological target: T2, MOR; experiment: Competitive radioligand binding assay, MOR; design: expressed in transfected cells; membrane homogenate
KOR [5] = biological target: T1, KOR; experiment: Competitive radioligand binding assay, KOR; conditions: for selectivity ratio δ/κ / selectivity ratio μ/κ: ratio of Ki values
DOR [6] = biological target: T3, DOR (Homo sapiens, UniProt P41143); experiment: Competitive radioligand binding assay, DOR
T3 construct: expressed in transfected cells; membrane homogenate

DOR [7] = biological target: T3, DOR; experiment: [35S]-GTPγS functional assay, DOR; assay type: biochemical; conditions: for EC50: hDOR-CHO membranes; for Emax: percent of SNC80 full agonist control
MOR [8] = biological target: T2, MOR; experiment: [35S]-GTPγS functional assay, MOR; assay type: biochemical; design: expressed in transfected cells; membrane homogenate; conditions: for EC50: mMOR-CHO membranes; for Emax: read-out: [35S]-GTPγS functional activity MOR Emax (%)
in vitro [9] = conditions: human, s9
in vitro [10] = conditions: Sprague-Dawley, rat, s9
male Swiss Webster mice [11] = experiment: Warm-water tail immersion assay, time course study; assay type: in vivo, mouse; conditions: morphine 10 mg/kg s.c.
[12] = [3H]naloxone, mMOR-CHO membranes
[13] = [3H]naloxone, mMOR-CHO membranes, read-out: radioligand binding affinity (Ki, nM) MOR
[14] = [3H]diprenorphine, mKOR-CHO membranes

Structure (SMILES) | Emax (KOR [1]) | antinociception compared to the vehicle group (male Swiss Webster mice [2]) | radioligand binding affinity (Ki, nM) MOR (MOR [4]; [12]) | Ki (KOR [5]) | selectivity ratio δ/κ (KOR [5]) | Ki (DOR [6]) | EC50 (KOR [1]) | EC50 (DOR [7]) | Emax (DOR [7]) | Ki (MOR [4]) | EC50 (MOR [8]) | Emax (MOR [8]) | radioligand binding affinity (Ki, nM) KOR (KOR [5]; [14]) | ED50 (male Swiss Webster mice [2]) | percent MPE (male Swiss Webster mice [2]) | further results
Cl.O=C(CCc1ccoc1)N[C@H]1CC[C@@]2(O)[C@H]3Cc4ccc(O)c5c4[C@@]2(CCN3CC2CC2)[C@H]1O5 [Compound 6, 17-Cyclopropylmethyl-3,14β-dihydroxy-4,5α-epoxy-6α-[3′-(furan-3″-yl)propanamido]morphinan Hydrochloride] | 80.3 ± 4.73% | lack of significant antinociceptive effect | subnanomolar | – | – | – | – | – | – | – | – | – | – | – | – | [35S]-GTPγS functional activity MOR Emax (%) (MOR [3]): 27.62 ± 1.96%; Ki (MOR [4]; [13]): 0.44 ± 0.1 nM
Cl.O=C(CCc1ccoc1)N[C@@H]1CC[C@@]2(O)[C@H]3Cc4ccc(O)c5c4[C@@]2(CCN3CC2CC2)[C@H]1O5 [Compound 8, 17-Cyclopropylmethyl-3,14β-dihydroxy-4,5α-epoxy-6β-[3′-(furan-3″-yl)propanamido]morphinan Hydrochloride] | 95.9 ± 1.43% | lack of significant antinociceptive effect | subnanomolar | – | – | – | – | – | – | – | – | – | – | – | – | [35S]-GTPγS functional activity MOR Emax (%) (MOR [3]): above 40%; Ki (MOR [4]; [13]): 0.21 ± 0.01 nM
O=C(CCc1ccco1)N[C@@H]1CC[C@@]2(O)[C@H]3Cc4cccc5c4[C@@]2(CCN3CC2CC2)[C@H]1O5 [Compound 12, 17-Cyclopropylmethyl-4,5α-epoxy-6β-[3′-(furan-2″-yl)propanamido]-14β-hydroxymorphinan Hydrochloride] | 86.83 ± 0.69% | lack of significant antinociceptive effect | – | 23.6 ± 3.79 nM | 34 | 800 ± 96.7 nM | 368 ± 31.8 nM | 2400 ± 200 nM | 71 ± 6.1% | 27.5 ± 2.9 nM | 104 ± 24.2 nM | 10.8 ± 1.13% | – | – | – | selectivity ratio μ/κ (KOR [5]): 1
CN(C(=O)CCc1ccco1)[C@H]1CC[C@@]2(O)[C@H]3Cc4ccc(O)c5c4[C@@]2(CCN3CC2CC2)[C@H]1O5 [Compound 13, 17-Cyclopropylmethyl-3,14β-dihydroxy-4,5α-epoxy-6α-[3′-(furan-2″-yl)-N-methylpropanamido]morphinan Hydrochloride] | 101 ± 2.5% | – | subnanomolar | 0.12 ± 0.02 nM | – | 0.37 ± 0.07 nM | 0.04 ± 0.01 nM | 0.66 ± 0.06 nM | 63.1 ± 2.6% | 0.15 ± 0.01 nM | 0.31 ± 0.04 nM | 15.3 ± 1.08% | subnanomolar | 0.123 mg/kg | ≥ 80% | radioligand binding affinity (Ki, nM) DOR (DOR [6]; [3H]diprenorphine, hDOR-CHO membranes): subnanomolar
CN(C(=O)CCc1ccco1)[C@@H]1CC[C@@]2(O)[C@H]3Cc4ccc(O)c5c4[C@@]2(CCN3CC2CC2)[C@H]1O5 [Compound 15, 17-Cyclopropylmethyl-3,14β-dihydroxy-4,5α-epoxy-6β-[3′-(furan-2″-yl)-N-methylpropanamido]morphinan Hydrochloride] | 100.7 ± 1% | – | subnanomolar | 0.32 ± 0.03 nM | – | 7.32 ± 1.08 nM | 1.48 ± 0.17 nM | 16.9 ± 2.57 nM | 38.6 ± 1.37% | 0.66 ± 0.05 nM | 3.58 ± 0.59 nM | 15.3 ± 0.5% | subnanomolar | 0.251 mg/kg | ≥ 80% | –
Cl.O=C(CCc1ccco1)N[C@@H]1CC[C@@]2(O)[C@H]3Cc4ccc(O)c5c4[C@@]2(CCN3CC2CC2)[C@H]1O5 [Compound 16, 17-Cyclopropylmethyl-3,14β-dihydroxy-4,5α-epoxy-6β-[3′-(furan-2″-yl)propanamido]morphinan Hydrochloride] | – | lack of significant antinociceptive effect | subnanomolar | – | – | – | 1.62 ± 0.12 nM | 16.8 ± 2.96 nM | – | – | – | – | subnanomolar | – | – | Ki (KOR [5]; [3H]diprenorphine, mKOR-CHO membranes, read-out: radioligand binding affinity (Ki, nM) KOR): 0.61 ± 0.07 nM; Ki (DOR [6]; [3H]diprenorphine, hDOR-CHO membranes, read-out: radioligand binding affinity (Ki, nM) DOR): 33 ± 3.58 nM; [35S]-GTPγS functional activity MOR Emax (%) (MOR [3]): above 40%; Ki (MOR [4]; [13]): 0.28 ± 0.02 nM
CN(C(=O)/C=C/c1ccco1)[C@H]1CC[C@@]2(O)[C@H]3Cc4cccc5c4[C@@]2(CCN3CC2CC2)[C@H]1O5 [Compound 17, 17-Cyclopropylmethyl-4,5α-epoxy-6α-[(2E)-3′-(furan-2″-yl)N-methylprop-2-enamido]-14β-hydroxymorphinan Hydrochloride] | 110 ± 7.9% | – | – | 0.62 ± 0.04 nM | 110 | 68.4 ± 11.2 nM | 5.97 ± 0.42 nM | 440 ± 32.2 nM | – | 16.8 ± 1.34 nM | 125 ± 17.1 nM | 22.9 ± 2.01% | subnanomolar | 7.8 mg/kg | ≥ 80% | selectivity ratio μ/κ (KOR [5]): 27
O=C(/C=C/c1ccco1)N[C@H]1CC[C@@]2(O)[C@H]3Cc4cccc5c4[C@@]2(CCN3CC2CC2)[C@H]1O5 [Compound 18, 17-Cyclopropylmethyl-4,5α-epoxy-6α-[(2E)-3′-(furan-2″-yl)prop-2-enamido]-14β-hydroxymorphinan Hydrochloride] | 85.2 ± 6.52% | lack of significant antinociceptive effect | – | 249 ± 32 nM | 2 | 456 ± 26.4 nM | 1370 ± 89 nM | 1240 ± 147 nM | 75 ± 5.1% | 107 ± 8.37 nM | 1510 ± 948 nM | 16 ± 2.91% | – | – | – | –
O=C(/C=C/c1ccco1)N[C@@H]1CC[C@@]2(O)[C@H]3Cc4cccc5c4[C@@]2(CCN3CC2CC2)[C@H]1O5 [Compound 20, 17-Cyclopropylmethyl-4,5α-epoxy-6β-[(2E)-3′-(furan-2″-yl)prop-2-enamido]-14β-hydroxymorphinan Hydrochloride] | 99.7 ± 5.88% | lack of significant antinociceptive effect | – | 7.03 ± 0.92 nM | 78 | 551 ± 64 nM | 178 ± 18.1 nM | 860 ± 148 nM | > 80% | 42.4 ± 2.34 nM | 1140 ± 984 nM | 12.8 ± 3% | – | – | – | selectivity ratio μ/κ (KOR [5]): 6
O=C(/C=C/c1ccco1)N[C@H]1CC[C@@]2(O)[C@H]3Cc4ccc(O)c5c4[C@@]2(CCN3CC2CC2)[C@H]1O5 [Compound 22, 17-Cyclopropylmethyl-3,14β-dihydroxy-4,5α-epoxy-6α-[(2E)-3′-(furan-2″-yl)prop-2-enamido]morphinan Hydrochloride] | – | – | subnanomolar | 1.08 ± 0.03 nM | – | 8.75 ± 0.58 nM | 13.7 ± 2.52 nM | 21.1 ± 1.41 nM | – | 0.53 ± 0.06 nM | 2.97 ± 0.45 nM | – | – | 4.08 mg/kg | ≥ 80% | –
O=C(/C=C/c1ccco1)N[C@@H]1CC[C@@]2(O)[C@H]3Cc4ccc(O)c5c4[C@@]2(CCN3CC2CC2)[C@H]1O5 [Compound 24, 17-Cyclopropylmethyl-3,14β-dihydroxy-4,5α-epoxy-6β-[(2E)-3′-(furan-2″-yl)prop-2-enamido]morphinan Hydrochloride] | – | – | subnanomolar | 0.17 ± 0.02 nM | – | 12.8 ± 2.37 nM | 0.54 ± 0.11 nM | 13.1 ± 2.09 nM | – | 0.3 ± 0.02 nM | 6.76 ± 1.99 nM | – | subnanomolar | 3.32 mg/kg | ≥ 80% | –
O=C(O)Cc1ccccc1Nc1c(Cl)cccc1Cl [diclofenac, reference compound] | – | – | – | – | – | – | – | – | – | – | – | – | – | – | – | half-life at 1 h, 1 µM (in vitro [9]): 0.308 h; microsomal CLint at 1 h, 1 µM (in vitro [9]): 37.4 µL/min/mg; half-life at 1 h, 1 µM (in vitro [10]): 1.7 h; microsomal CLint at 1 h, 1 µM (in vitro [10]): 6.8 µL/min/mg
CN1CC[C@]23c4c5ccc(O)c4O[C@H]2[C@@H](O)C=C[C@H]3[C@H]1C5 [morphine, (-)-Morphine sulfate pentahydrate, reference compound] | – | – | – | – | – | – | – | – | – | – | – | – | – | – | 100% | effects back to baseline (male Swiss Webster mice [11]): 5 h; time of significant antinociception postinjection (male Swiss Webster mice [11]): 30 to 60 min
